Laboratory results as given in US9556225B2, “Peptide stimulator of cell survival and proliferation” (União Química Farmacêutica Nacional S/A, priority 2014, dated 2017).
Where no end group is shown, it is not given here.

Columns and labels:
collagen I = assay: Extracellular matrix molecules by fluorescence microscopy; assay type: cell-based, human; conditions: FN1 cells, 50 ng/ml, 48 h, 10% FBS
Text: (§1) Previous studies have reported the importance of extracellular matrix components for maintaining cell survival of serum-deprived cells and that survival is enhanced by cell-cell contact. To confirm the synthesis of extracellular matrix molecules, fibroblast cultures were marked with antibodies specific for laminin and fibronectin following treatment with the synthetic peptide.
(§2) After treatment, the medium was removed and cells were washed with PBS and fixed with 3.7% paraformaldehyde for 10 minutes. Triton X-100 (0.1%) was added for 15 minutes for permeabilization of the plasma membrane, followed by addition of the primary antibody and incubation for 12 hours (overnight) in the dark at 4° C. The cells were washed with PBS, the secondary antibody was added and the cells were kept for 1 hour at room temperature in the dark. Antibodies were diluted according to the manufacturer's recommendation. After washing, the […] cell nuclei were stained with 4′,6-diamidino-2-phenylindole (DAPI) reagent (Invitrogen) and slides were mounted on coverslips containing 4 μl of antifade solution (Vectashield™, Vector-H1000, that serves to preserve fluorescence). Cells were viewed with an Axio™ Imager A1 fluorescence microscope (Carl Zeiss, Germany).
(§3) Primary antibodies in blocking buffer: 10% FBS, 1% BSA in TBS (0.1% Triton X-100 in PBS):
Mouse monoclonal to Collagen type I [Col-I] (abcam): 1/1000

FN1 fibroblasts [1] = assay: Cell cycle phases by propidium iodide flow cytometry; assay type: cell-based, human; conditions: 48 hours
Method: The distribution of cells in the various cell cycle phases was determined by the content or amount of propidium iodide (PI) incorporated into the cell, measured by flow cytometry (Vindelov, L. L., I. J. Christensen, and N. I. Nissen, Standardization of high-resolution flow cytometric DNA analysis by the simultaneous use of chicken and trout red blood cells as internal reference standards. Cytometry, 1983. 3(5): p. 328-31). […] After treatment, the FN1 cell suspensions were resuspended in 70% ethanol and kept in a freezer at −20° C. for subsequent analysis of cell cycle phases. At the time of the experiment, cells were incubated in a PBS solution: 950 μl of PBS, 40 μl of PI (1 mg/ml) and 10 μl of Rnase: (10 mg/ml), to assess the quantity and integrity of DNA in the cell cycle phases. The results obtained by the acquisition program CellQuest™ acquired on a FACScalibur™ flow cytometer (Becton and Dickson, USA) were analyzed by FACS ModFit™ 2.8. The DNA content was expressed as mean percentage±standard error of the mean (SEM) of 3 independent experiments (Student's t test) of cells distributed in the different cell cycle phases: apoptotic cells, G0/G1, S and G2/M.

vitronectin = assay: Extracellular matrix molecules by fluorescence microscopy; assay type: cell-based, human; conditions: FN1 cells, 50 ng/ml, 48 h, 10% FBS
Text: as §1, §2, §3
Mouse monoclonal [VN58-1] […]

laminin = assay: as above; assay type: cell-based, human; conditions: FN1 cells, 50 ng/ml, 48 h, 10% FBS
Text: as §1, §2, §3
Rabbit polyclonal to Laminin alpha 4 (abcam): 1/500

FN1 cells = assay: Detection of intracellular reactive oxygen and nitrogen species (ROS); assay type: cell-based, human; conditions: for ROS production: serum-deprived (1% FBS)
Method: The detection of reactive species was performed by the ROS Detection Kit (Enzo Life Sciences, Plymouth Meeting, Pa.) according to the manufacturer's instructions. This assay allows detecting ROS production in living cells by flow cytometry. The dye detection reagent reacts with hydrogen peroxide, peroxynitrite and hydroxyl radicals. FN1 cells at a density of 10^6/ml were plated and cultured in 6-well plates for 24 hours in incubator containing 5% CO2 at 37° C. […] Then, the cells were washed with wash buffer supplied by the manufacturer and centrifuged at 1500 rpm for 10 minutes. The supernatant was discarded and the cell button resuspended in 200 μl of PBS. The fluorescence was determined at λ=485 nm for excitation and emission λ=590 nm for a FACScalibur™ flow cytometry system using CellQuest™ software with the acquisition of 10,000 events having as parameters FSC (size) and SSC (granularity/complexity) linear scale and FL1/FL2 on logarithmic scales. The results were expressed as the mean±SEM (standard error of the mean) of 3 independent experiments.

[2] = system: Human umbilical vein endothelial cells (HUVEC); assay: MTT cytotoxicity and cell viability assay; assay type: cell-based; conditions: 72 h; for cell viability (MTT), significance relative to untreated control (1% FBS): p<0.01
Method: For in vitro cell culture tests, the peptide (previously dissolved in water and stored at −20° C.) was resuspended, at the desired concentration, in culture medium supplemented with fetal bovine serum (FBS). The concentration of FBS was selected depending on the requirements of each experiment.
The MTT method was used (Mosmann, T., Rapid colorimetric assay for cellular growth and survival: application to proliferation and cytotoxicity assays. J Immunol Methods, 1983. 65(1-2): p. 55-63). The viability test was performed in culture plates of 96 wells. […] After 72 h, the supernatant was discarded and the cells washed twice with phosphate buffered saline (PBS) at pH 7.4 and incubated at 37° C. for 3 h with 100 μl of 0.5 mg/ml MTT reagent (3-(4,5-dimethylthiazol-2-yl)-2,5-diphenyl tetrazolium bromide) in PBS. The supernatant was removed and the reaction was stopped with 100 μl of dimethyl sulfoxide (DMSO). Absorbance values were determined at 540 nm using a SpectraMax™ 190 automatic plate reader (Molecular Devices, USA).
The results were expressed as a percentage of cell viability relative to the untreated control at time zero (initial number of cells). Absorbance values were determined at 540 nm. The results were expressed as the average ±standard error of the mean (SEM) of 5 independent experiments. Statistical significance between the groups were determined by a one-way ANOVA test (*: p<0.05, **: p<0.01).

fibronectin = assay: Extracellular matrix molecules by fluorescence microscopy; assay type: cell-based, human; conditions: FN1 cells, 50 ng/ml, 48 h, 10% FBS
Text: as §1, §2, §3
Rabbit polyclonal to Fibronectin (abcam): 2 μg/ml

FN1 fibroblasts [3] = assay: Ultrastructure of fibroblasts by transmission electron microscopy (TEM); assay type: cell-based, human; conditions: 1% FBS, 50 ng/ml, 48 hours
Text: Severe morphological changes in normal fibroblasts are observed after serum deprivation conditions consistent with those of apoptotic cell death. […] TEM provides ultra-structural evidence about the nature of cell death (Kulkarni, G. V. and C. A. McCulloch, Serum deprivation induces apoptotic cell death in a subset of Balb/c 3T3 fibroblasts. J Cell Sci, 1994. 107 (Pt 5): p. 1169-79).
Cells were washed 3 times with PBS and gently collected in a tube with the help of a cell scraper. The cell suspension was centrifuged, and the cell button re-suspended in a solution of 3% glutaraldehyde and 2% paraformaldehyde diluted in sodium cacodylate. The cell button was post-fixed in 1% solution of osmium tetroxide for 1 hour, washed with PBS and distilled water and dehydrated in a graded ethanol series (30, 60, 70, 80 and 100%). Finally, the epoxy resin was mixed with warm ethanol (1:1) for infiltration, and only the resin was used for the incorporation of cells (60° C./48 h). Ultrathin sections (50 nm) were cut with an ultramicrotome (Leica Ultracut™ UCT) and stained with 5% uranyl acetate in 50% ethanol and 2% aqueous solution of citrate. The obtained sections were photographed using a TEM (LEO™ 906E, Zeiss, […]) at an accelerating voltage of 80 kV.

[4] = 125 μg/ml, 25° C., sodium phosphate buffer, pH 6.0 to 8.0, 24 hours
Method: Measurement of the structural integrity of the peptide was carried out using sodium phosphate buffer at various pH values (6.0, 6.4, 6.8, 7.0, 7.4, 8.0) containing 125 μg/ml of the peptide. Peptide solutions were incubated overnight at room temperature (25° C.). Analyses of circular dichroism (CD) were performed on a J-810 spectropolarimeter controlled by Spectra Manager™ software (JASCO), using cuvettes with optical path length of 0.1 cm (Biotechnology Center—Instituto Butantan). The CD spectra were recorded in the range 183-260 nm every 0.1 nm. The spectrum of each sample was subtracted from the spectrum of the buffer without peptide.

[5] = system: human dermal fibroblasts (FN1); assay: Cell proliferation by CFDA-SE staining, flow cytometry; assay type: cell-based; conditions: FN1 cells; for proliferation / cytoprotection (CFDA-SE staining): 1% FBS, 48 hours; for proliferation rate (CFDA-SE staining): 10% FBS, 48 h, p<0.001 versus control 10% FBS
Method: Quantitative assessment of cell proliferation was performed by staining cells with carboxyfluorescein succinimidyl ester (CFDA-SE), as described previously (Asquith, B., et al., Quantifying lymphocyte kinetics in vivo using carboxyfluorescein diacetate succinimidyl ester (CFSE). Proc Biol Sci, 2006. 273(1590): p. 1165-71; Lyons, A. B., Analysing cell division in vivo and in vitro using flow cytometric measurement of CFSE dye dilution. J Immunol Methods, 2000. 243(1-2): p. 147-54). CFDA-SE is a lipophilic dye which reacts with amino groups of peptides and proteins, forming a stable amide linkage, which can be detected using flow cytometry analysis. The CFDA-SE passively diffuses into cells. It is colorless and nonfluorescent until its acetate groups are cleaved by intracellular esterases to produce a highly fluorescent, amine reactive succinimidyl ester of carboxyfluorescein, which is well conserved and can be fixed with aldehyde fixatives. The excess reagent and unconjugated by products passively diffuse into the extracellular environment where they can be washed away. When parent cells divide, CFDA-SE dye is equally distributed to the daughter cells, which therefore have half of the fluorescence intensity of the parents. The reduction of fluorescence intensity of cell generations in cell proliferation is easily detected by flow cytometry.
For the assay, human dermal fibroblasts (FN1) cells were seeded in six-well plates (1×10^4 cells/well), incubated with […] CFDA—SE diluted in PBS, and cultured at 37° C. with 5% CO2 for 15 minutes protected from light, according to the manufacturer's instructions (Vybrant® CFDA SE Cell Tracer Kit, MolecularProbes). […] Subsequently, the cells were trypsinized and the cell buttons resuspended in 300 μl of FACS buffer with 2% paraformaldehyde and kept in the refrigerator until the moment of reading. Cell proliferation by CFDA—SE was estimated by the reduction in cell fluorescence. Fluorescence was determined for excitation at λ=492 nm and for emission at λ=517 nm (10000 events per sample) in a FACScalibur™ flow cytometry system (Becton and Dickson) using the CellQuest™ software. The parameters FSC (size) and SSC (granularity/complexity) was detected in linear scale and FL1-H on a logarithmic scale. Proliferation was analyzed using the program ModFit LT™ 2.0 (Verity Software House, Topsham, Me., USA). The figures are expressed as the average ±standard error of the mean (SEM) of 5 independent experiments (Student's t test).

[6] = 25 ng/ml, p<0.05 versus control 1% FBS
[7] = 50 ng/ml, p<0.001 versus control 1% FBS

DYFKDGKDVN [LONO-Q]
production of collagen I (collagen I): increased amounts | apoptotic cells (fragmented DNA) (FN1 fibroblasts [1]; 1% FBS, 50 ng/ml, n=3, mean±SEM, p<0.01 vs. control 1% FBS): 8.1±1.1% | cells in S phase of the cell cycle (FN1 fibroblasts [1]; 1% FBS, 50 ng/ml, n=3, mean±SEM, p<0.05 vs. control 1% FBS): 17.2±1.5% | S phase of the cell cycle, dose dependence (FN1 fibroblasts [1]; 1% FBS, 25 or 50 ng/ml): apparent dose-dependent increase of the S phase | cells in G2/M (FN1 fibroblasts [1]; 10% FBS, 50 ng/ml, n=3, mean±SEM, p<0.05 vs. control 10% FBS): 18.4±2.5% | production of vitronectin (vitronectin): increased amounts | production of laminin (laminin): increased amounts | ROS generation (FN1 cells; normal cell growth (10% FBS)): no statistically significant decrease in ROS generation | ROS production (FN1 cells; [6]): statistically significant decrease of ROS production | ROS production (FN1 cells; [7]): statistically significant decrease of ROS production | cellular proliferation (MTT), significance ([2]; 10% FBS, 50 ng/ml, p<0.05): statistically significant results | cell viability (MTT) ([2]; HUVECs, 1% FBS (serum deprivation), dose response): stimulated cell viability in a dose-dependent manner | cell viability (MTT), significance relative to untreated control (1% FBS) ([2]; HUVECs, 25 ng/ml): statistically significant results | cell viability (MTT), significance relative to untreated control (1% FBS) ([2]; HUVECs, 50 ng/ml): statistically significant results | cellular proliferation (MTT) ([2]; normal conditions (10% FBS), dose response): stimulated the cellular proliferation in a dose-dependent manner | production of fibronectin (fibronectin): increased amounts | morphological changes induced by serum deprivation (TEM) (FN1 fibroblasts [3]): retards most of the effects observed in serum deprived cells | Stability (circular dichroism) [4]: remains stable | proliferation / cytoprotection (CFDA-SE staining) [5, 6]: significant cytoprotection | proliferation / cytoprotection (CFDA-SE staining) [5, 7]: significant cytoprotection | proliferation rate (CFDA-SE staining) ([5]; 25 ng/ml): statistically significant increase in the proliferation rate | proliferation rate (CFDA-SE staining) ([5]; 50 ng/ml): statistically significant increase in the proliferation rate
